Assay [1] has as its system spontaneous hypertensive rats. Put plainly: Antihypertensive activity by oral administration to spontaneous hypertensive rats. It counts as in vivo, rat. Particulars: Rattus norvegicus, oral, spontaneous hypertensive rats, read-out: Antihypertensive Activity % Blood Pressure Change. The method, then:
(§1) In the following table, antihypertensive acitvity was determined by oral administration to spontaneous hypertensive rats, and the in vitro and in vivo α-adrenergic receptor blocking effect was determined by tests described following the table. In the in vitro test, the inhibition by the test drug of norepinephrine induced contractions of rat seminal vesicles was measured; and in the in vivo test, the inhibition by the test drug of norepinephrine induced pressor responses in anesthetized dogs was measured.

Assay [2] concerns the target T1, α-adrenergic receptor (Rattus norvegicus, UniProt P43140).
T1 construct: Seminal vesicles were removed and transfered to a shallow dish containing modified Tyrode's solution; from tissue; host or cells: isolated seminal vesicle of male Long Evans rats
T1 sequence (P43140 1-466): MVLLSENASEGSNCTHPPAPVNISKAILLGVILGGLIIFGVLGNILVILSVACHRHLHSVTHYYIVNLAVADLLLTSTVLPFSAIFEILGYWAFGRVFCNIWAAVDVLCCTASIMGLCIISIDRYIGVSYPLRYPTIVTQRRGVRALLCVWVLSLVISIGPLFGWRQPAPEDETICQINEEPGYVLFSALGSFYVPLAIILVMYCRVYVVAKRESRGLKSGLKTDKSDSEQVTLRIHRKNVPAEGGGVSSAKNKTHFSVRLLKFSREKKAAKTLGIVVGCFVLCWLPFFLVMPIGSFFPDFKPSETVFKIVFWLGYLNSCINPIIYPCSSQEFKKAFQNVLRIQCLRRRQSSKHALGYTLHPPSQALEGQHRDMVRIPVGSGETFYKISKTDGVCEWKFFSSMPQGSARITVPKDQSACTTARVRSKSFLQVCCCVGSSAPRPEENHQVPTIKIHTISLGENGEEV
Put plainly: Isolated rat seminal vesicle assay: inhibition of norepinephrine induced contractions. Particulars: relative to prazosin; test compound 10 nanograms/ml; shift of norepinephrine ED50, rat seminal vesicle. In kind it is cell-based. Here is the method: as §1
Dangan et al., Int. j. […] Lietch et al., Brit.
Male Long Evans rats weighing approximately 300 g. were sacrificed by a sharp blow on the head. Seminal vesicles were removed and transfered to a shallow dish containing modified Tyrode's solution. The vesicles were emptied of their contents by squeezing them gently with a pair of forceps. Silk thread (4-0) was attached to both ends of the vesicle and it was suspended in a 20 ml. muscle chamber containing modified oxygenated Tyrode's solution (g./liter: NaCl 8, KCl 0.2, CaCl2 0.26, NaHCO3 1, Na2 HPO4 0.575, glucose 0.5 and MgCl2 0.02). The bathing fluid was maintained at 37° C. with a thermostatically controlled isolated organ tissue bath. Contractions were recorded isometrically by means of a force displacement transducer and recordings were made with a Beckman RP Dynograph. Norepinephrine (NE) was added to the muscle chamber in volumes ranging from 0.1 to 0.4 ml. with a 1 ml. syringe attached to a 3 inch 20 gauge needle. NE and test compounds were dissolved in deionized water.
NE dose response curves were obtained alone and in the presence of test compounds. NE was allowed to remain in contact with the strip until a maximal contraction was obtained. The strip was then washed with the perfusion fluid for 15-30 seconds and the preparation was allowed to return to base line before a subsequent dose of NE was given. Increasing amounts of NE were injected into the bath in the same manner until a complete dose response was obtained.
The seminal vesicles used to obtain the control NE dose response were discarded and new preparations were placed in the tissue bath for evaluation of the test compound. The test compound was added directly to the perfusion fluid (10 nanograms/ml.) and the strips were allowed to remain in contact with the bathing media for at least 10 minutes before the NE dose response was determined. Seminal vesicles from the same rat were used for control and for test drug.
ED50 values for NE were obtained by regression analysis as described by Finney, Probit, Analysis, 2d Ed., Cambridge (1964). A minimum of 4 strips and at least 4 doses were employed to calculate the regression lines. The ED50 value is defined as the concentration of NE which produces a contraction equal to 50% of the maximal contraction.

Assay [3] deals with α-adrenergic receptor. Put plainly: Anesthetized dog assay for α-adrenergic blocking agents: inhibition of norepinephrine induced pressor responses. In kind it is in vivo. Particulars: relative to prazosin; test drug 3 mg./kg. iv; norepinephrine dose raising blood pressure by 50 mm. of Hg; anesthetized dogs. Here is the method: as §1
Thus, blood pressure responses to norepinephrine (NE) in anesthetized dogs was used as a comparative assay for α-adrenergic receptor blocking properties of drugs.
Experiments were done on mongrel dogs anesthetized with sodium pentobarbital, 30 mg./kg. iv. The left femoral artery was cannulated to record aortic blood pressure and a femoral vein was cannulated for administration of drugs. All animals underwent a bilateral vagotomy. A norepinephrine dose-response curve was obtained by administering increasing doses of iv norepinephrine (0.01 - 1 μg./kg.). The test drug was then administered iv at 3 mg./kg. Approximately 30 minutes later a dose-response curve was again established for iv norepinephrine (0.01-10 μg./kg.).

Assay [4] is described as follows: Clinical use as antihypertensive agent in humans (literature reports). Particulars: clinical daily dose ranges 150 to 500 mg. versus 1.5 to 15 mg. In kind it is in vivo, human.

These results are taken from patent US4001237A, “Oxazole, isoxazole, thiazole and isothiazole amides” (priority 1976, dated 1977).

Counter-ions that a name gives are not always drawn.

As for `COc1cc2nc(N3CCN(C(=O)c4cocn4)CC3)nc(N)c2cc1OC.Cl` [Example 7, 4-Amino-6,7-dimethoxy-2-[4-(oxazole-4-carbonyl)piperazin-1-yl]quinazoline Hydrochloride], in assay [1], the change in vivo at 1 mg/kg was -15%, the change in vivo at 3 mg/kg was -29% and the change in vivo at 10 mg/kg is -45%. Further, in assay [2], the “α-Adrenergic Receptor Blocking Effect In Vitro Activity Ratio” value turned out to be 0.6. Besides, the “α-Adrenergic Receptor Blocking Effect In Vivo Activity Ratio” value in assay [3] worked out at 1.22.

Turning to `COc1cc2nc(N3CCN(C(=O)c4cnc(C)s4)CC3)nc(N)c2cc1OC` [Example 15, 4-Amino-6,7-dimethyoxy-2-[4-(2-methylthiazole-5-carbonyl)piperazin-1-yl]quinazoline Hydrochloride], in assay [1], the change in vivo at 1 mg/kg was -20%, the change in vivo at 3 mg/kg is -25% and the change in vivo at 10 mg/kg was -37%. Moreover, the “α-Adrenergic Receptor Blocking Effect In Vitro Activity Ratio” value in assay [2] is 0.19. Besides, the “α-Adrenergic Receptor Blocking Effect In Vivo Activity Ratio” value in assay [3] is recorded as 0.09.

For `COc1cc2c(N)nc(N3CCN(C(=O)OCC(C)(C)O)CC3)nc2c(OC)c1OC` [Trimazosin], the “weaker than prazosin at the lower end of the clinical daily dosage range” value in assay [4] is reported as 100 fold.
